The source of these data is BindingDB's records for doi:10.1021/ja0466154 (Weizmann Institute of Science, 2004).

The target of test [1] is Acetylcholinesterase (Tetronarce californica, UniProt P04058). Description: Enzyme Inhibition Assay. Particulars: pH 8; 22 °C. As to the method: (§1) The cholinesterase assays were performed using colorimetric method reported by Ellman. […] Each inhibitor was evaluated at several concentrations in the range from 1 nM to 20 uM.
In test [2] the target is Acetylcholinesterase (Electrophorus electricus, UniProt O42275). Description: Enzyme Inhibition Assay. Conditions: pH 8; 22 °C. The protocol:
as §1

Sequence of Acetylcholinesterase (Tetronarce californica, UniProt P04058) (P04058 whole entry): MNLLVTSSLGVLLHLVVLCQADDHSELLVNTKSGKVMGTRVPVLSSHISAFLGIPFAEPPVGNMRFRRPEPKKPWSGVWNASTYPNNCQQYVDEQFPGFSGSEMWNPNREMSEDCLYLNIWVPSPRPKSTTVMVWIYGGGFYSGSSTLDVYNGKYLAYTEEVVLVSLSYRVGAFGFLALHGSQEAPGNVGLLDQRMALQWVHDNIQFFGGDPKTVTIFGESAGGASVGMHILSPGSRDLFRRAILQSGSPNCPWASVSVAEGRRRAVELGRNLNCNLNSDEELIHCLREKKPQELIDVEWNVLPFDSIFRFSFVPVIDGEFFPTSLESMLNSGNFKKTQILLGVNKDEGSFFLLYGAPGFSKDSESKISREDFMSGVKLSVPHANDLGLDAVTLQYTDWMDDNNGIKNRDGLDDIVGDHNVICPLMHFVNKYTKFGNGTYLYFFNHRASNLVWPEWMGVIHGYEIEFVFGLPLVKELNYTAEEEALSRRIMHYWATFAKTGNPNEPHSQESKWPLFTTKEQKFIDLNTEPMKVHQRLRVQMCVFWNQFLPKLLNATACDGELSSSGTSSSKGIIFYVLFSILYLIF
Sequence of Acetylcholinesterase (Electrophorus electricus, UniProt O42275) (O42275 whole entry): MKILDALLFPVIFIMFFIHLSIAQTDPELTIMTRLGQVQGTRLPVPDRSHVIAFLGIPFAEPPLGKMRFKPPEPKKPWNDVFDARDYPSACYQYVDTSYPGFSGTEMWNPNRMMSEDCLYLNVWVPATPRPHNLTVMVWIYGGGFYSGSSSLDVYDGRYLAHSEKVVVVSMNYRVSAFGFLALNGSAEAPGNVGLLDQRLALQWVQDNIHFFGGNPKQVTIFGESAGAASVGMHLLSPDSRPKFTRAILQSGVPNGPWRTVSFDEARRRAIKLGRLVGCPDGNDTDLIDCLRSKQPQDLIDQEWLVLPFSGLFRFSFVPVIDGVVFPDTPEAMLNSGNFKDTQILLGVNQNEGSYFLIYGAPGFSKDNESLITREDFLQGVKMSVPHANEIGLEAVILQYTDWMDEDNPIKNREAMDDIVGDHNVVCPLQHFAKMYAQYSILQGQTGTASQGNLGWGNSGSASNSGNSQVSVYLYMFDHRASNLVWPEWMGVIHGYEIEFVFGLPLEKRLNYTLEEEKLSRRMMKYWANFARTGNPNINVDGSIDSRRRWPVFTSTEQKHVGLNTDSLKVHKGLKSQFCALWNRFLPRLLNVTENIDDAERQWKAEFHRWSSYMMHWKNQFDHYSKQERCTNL

In turn, `COc1ccc2c3c1O[C@H]1C[C@@H](O)C=C[C@@]31CC[N+](CCCCCCCCN1C(=O)c3ccccc3C1=O)=C2` [(1S,12S,14R)-4-[8-(1,3-dioxo-2,3-dihydro-1H-isoindol-2-yl)octyl]-14-hydroxy-9-methoxy-11-oxa-4-azatetracyclo[8.6.1.0^{1,12}.0^{6,17}]heptadeca-4,6,8,10(17),15-pentaen-4-ium] registered an IC50 in test [1] of 4 nM.

As to `C[N+]1=Cc2ccc(OCCCCCCCCN3C(=O)c4ccccc4C3=O)c3c2[C@@]2(C=C[C@H](O)C[C@@H]2O3)CC1` [(1S,12S,14R)-9-{[8-(1,3-dioxo-2,3-dihydro-1H-isoindol-2-yl)octyl]oxy}-14-hydroxy-4-methyl-11-oxa-4-azatetracyclo[8.6.1.0^{1,12}.0^{6,17}]heptadeca-4,6,8,10(17),15-pentaen-4-ium], the IC50 in test [1] came out at 499 nM; in test [2], 203 nM.

As for `COc1ccc2c3c1O[C@H]1C[C@@H](O)C=C[C@@]31CCN(CCCCCCCCN1C(=O)c3ccccc3C1=O)C2` [galanthamine deriv. 3d], the IC50 in test [1] amounted to 38 nM; in test [2], 72 nM.

For `COc1ccc2c3c1O[C@H]1C[C@@H](O)C=C[C@@]31CC[N+](C)=C2` [galanthamine deriv. 14], the IC50 in test [1] was 702 nM; in test [2], 266 nM.

For orientation: IC50 means the concentration that inhibits the measured activity by half. Low readings indicate higher potency, high ones lower potency.
